Assay results taken from US12171230B2, “Herbicidal compositions” (Bayer Aktiengesellschaft, priority 2018, dated 2024).
Several values for one entry are separate records, joined by “and”; a condition that tells them apart may be missing. Identical values can stand only once. Like-named read-outs stand apart in the source and are kept apart here.

Legend:
Format in all cases: in vivo
[1] = tested on: Amaranthus palmeri; experiment: Post-emergence herbicidal action against Amaranthus palmeri; settings: for Herbicidal action: 16 DAT; for pest or weed control at […] / pest or weed control at 5 g/ha / pest or weed control at 15 g/ha: Amaranthus palmeri, post-emergence, 504 h; for pest or weed control at […]: 1.7 g of a.i./ha; for pest or weed control at 5 g/ha: 5 g of a.i./ha; for pest or weed control at 15 g/ha: 15 g of a.i./ha
In short: (§1)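 Greenhouse pot test: three-leaf-stage plants, three weeks from sowing, sprayed with spray-powder or emulsion-concentrate formulations at several dosages (300 to 800 l/ha water). Efficacy rated visually against untreated plants some 3 to 4 weeks later, with Colby formula giving expected combination effect.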

[2] = tested on: Bidens pilosa; experiment: Post-emergence herbicidal action against Bidens pilosa
In short: as §1

[3] = tested on: Setaria viridis; experiment: Post-emergence herbicidal action against Setaria viridis; settings: 1.7 g of a.i./ha
Description: When the observed efficacies exceed the formal sum total of the values of the tests with individual applications, they also exceed the expected value according to Colby, which is calculated using the formula below and is likewise regarded as an indication of synergism (cf. S. R. Colby; in Weeds 15 (1967) p. 20 to 22): E^C=A+B−([…])
Here: • A=efficacy of the active compound (A) in % at an application rate of a g a.i./ha; • B=efficacy of the active compound (B) in % at an application rate of b g a.i./ha; • E^C=expected value of the effect of the combination (A)+(B) in % at the combined application rate a+b g a.i./ha.
Seeds or rhizome pieces of mono- and dicotyledonous weeds are placed in sandy loam in pots, covered with soil and grown in a greenhouse under good growth conditions (temperature, air humidity, water supply). Three weeks after sowing, the test plants were treated at the three-leaf stage with the compositions according to the invention. The compositions according to the invention formulated as spray powders or as emulsion concentrates were sprayed onto the green plant parts in various dosages with an application rate of 300 to 800 l/ha of water (equivalent). After the test plants have been left to stand in the greenhouse under optimal growth conditions for about 3 to 4 weeks, the action of the preparations is scored visually in comparison to untreated controls. The compositions according to the invention also have good post-emergence herbicidal activity against a broad spectrum of economically important gramineous and broadleaf weeds.

[4] = tested on: Sorghum halepense; experiment: Post-emergence herbicidal action against Sorghum halepense; settings: 1.7 g of a.i./ha
In short: as §1

[5] = tested on: Digitaria sanguinalis; experiment: Post-emergence herbicidal action against Digitaria sanguinalis
In short: as §1

[6] = tested on: Poa annua; experiment: Post-emergence herbicidal action against Poa annua
In short: as §1

[7] = tested on: Galium aparine; experiment: Post-emergence herbicidal action against Galium aparine; settings: 1 g of a.i./ha
In short: as §1

[8] = block with (B1.14) Tembotrione, read-out: Herbicidal action 21 DAT [%] against Amaranthus palmeri
[9] = block with (B1.7) Mesotrione, read-out: Herbicidal action 21 DAT [%] against Amaranthus palmeri
[10] = read-out: Herbicidal action 21 DAT [%] against Amaranthus palmeri

## C=C[C@]1(C(=O)N[C@H]2CO[C@@H](C(=O)OC)C2)CC(c2cc(F)cc(F)c2)=NO1 (relative stereo) [Compound A3, methyl rel-(2R,4R)-4-[[(5S)-3-(3,5-difluorophenyl)-5-vinyl-4H-isoxazole-5-carbonyl]amino]tetrahydrofuran-2-carboxylate]
[1]; 50 g a.i./ha
  Herbicidal action: 35%
[1]; 100 g a.i./ha
  Herbicidal action: 45%
[1]; [8]
  pest or weed control at […]: 0%
  pest or weed control at 5 g/ha: 10%
  pest or weed control at 15 g/ha: 30%
[1]; [9]
  pest or weed control at […]: 10%
  pest or weed control at 5 g/ha: 15%
[1]; block with (B9.10) Saflufenacil, read-out: Herbicidal action 21 DAT [%] against Amaranthus palmeri
  pest or weed control at […]: 0%
[1]; [10]
  pest or weed control at 5 g/ha: 15%
  pest or weed control at 15 g/ha: 30%
[1]; 21 DAT, read-out: Herbicidal action 21 DAT [%] against Amaranthus palmeri
  pest or weed control at 5 g/ha: 15%
[1]; 21 DAT
  pest or weed control at […]: 10%
[2]; 1.7 g of a.i./ha
  Herbicidal action 21 DAT [%] against Bidens pilosa: 10% and 0%
  Herbicidal action 21 DAT against Bidens pilosa: 10%
[2]; 1.7 g of a.i./ha, post-emergence, block with (B1.14) Tembotrione
  Herbicidal action 21 DAT [%] against Bidens pilosa: 10%
[2]; 1.7 g of a.i./ha, post-emergence, block with (B1.7) Mesotrione
  Herbicidal action 21 DAT [%] against Bidens pilosa: 0%
[2]; 5 g of a.i./ha
  Herbicidal action 21 DAT [%] against Bidens pilosa: 10%
  Herbicidal action 21 DAT against Bidens pilosa: 10%
[2]; 5 g of a.i./ha, post-emergence, block with (B1.14) Tembotrione
  Herbicidal action 21 DAT [%] against Bidens pilosa: 10%
[2]; 5 g of a.i./ha, post-emergence, block with (B1.7) Mesotrione
  Herbicidal action 21 DAT [%] against Bidens pilosa: 10%
[2]; 15 g of a.i./ha
  Herbicidal action 21 DAT [%] against Bidens pilosa: 50%
[2]; 15 g of a.i./ha, post-emergence, block with (B1.7) Mesotrione
  Herbicidal action 21 DAT [%] against Bidens pilosa: 25%
[2]; 21 DAT, 1.7 g a.i./ha
  Herbicidal action: 10%
[2]; 21 DAT, 5 g a.i./ha
  Herbicidal action: 10%
[2]; post-emergence, 21 DAT, 1.7 g of a.i./ha
  Herbicidal action 21 DAT [%] against Bidens pilosa: 0%
[2]; post-emergence, 21 DAT, 5 g of a.i./ha
  Herbicidal action 21 DAT [%] against Bidens pilosa: 10%
[2]; post-emergence, 21 DAT, 15 g of a.i./ha
  Herbicidal action 21 DAT [%] against Bidens pilosa: 25%
[3]
  Herbicidal action 21 DAT against Setaria viridis: 70%
[3]; post-emergence
  Herbicidal action 21 DAT [%] against Setaria viridis: 70%
[4]
  Herbicidal action 21 DAT [%] against Sorghum halepense: 40%
  Herbicidal action 21 DAT against Sorghum halepense: 40%
[4]; post-emergence
  Herbicidal action 21 DAT [%] against Sorghum halepense: 40%
[5]; 1.7 g of a.i./ha
  Herbicidal action 21 DAT [%] against Digitaria sanguinalis: 20% and 10%
  Herbicidal action 21 DAT against Digitaria sanguinalis: 10%
[5]; 1.7 g of a.i./ha, post-emergence
  Herbicidal action 21 DAT [%] against Digitaria sanguinalis: 10%
[5]; 5 g of a.i./ha
  Herbicidal action 21 DAT [%] against Digitaria sanguinalis: 80%
  Herbicidal action 21 DAT against Digitaria sanguinalis: 80%
[5]; 21 DAT, 1.7 g a.i./ha
  Herbicidal action: 10%
[5]; (Z61) post-emergence, g of a.i./ha: 180, 100, 100 + 180
  Herbicidal action 37 DAT against Digitaria sanguinalis: 94%
[6]; 1 g of a.i./ha
  Herbicidal action 28 DAT against Poa annua L.: 15%
  Herbicidal action in [%] 14 DAT against Poa annua L.: 40% and 50%
  Herbicidal action in [%] 28 DAT against Poa annua L.: 15% and 20%
[6]; 1 g of a.i./ha, post-emergence
  Herbicidal action in [%] 28 DAT against Poa annua: 30%
[6]; 4 g of a.i./ha
  Herbicidal action in [%] 14 DAT against Poa annua L.: 85%
  Herbicidal action in [%] 28 DAT against Poa annua L.: 80%
[6]; 14 DAT, 1 g a.i./ha
  Herbicidal action: 50%
[6]; 14 DAT, 1 g of a.i./ha
  Herbicidal action against Poa annua L.: 40%
[6]; 14 DAT, 4 g a.i./ha
  Herbicidal action: 85%
[6]; 14 DAT, 16 g of a.i./ha
  Herbicidal action against Poa annua L.: 85%
[6]; 16 g of a.i./ha
  Herbicidal action 28 DAT against Poa annua L.: 40%
  Herbicidal action in [%] 14 DAT against Poa annua L.: 85%
[6]; 28 DAT, 1 g a.i./ha
  Herbicidal action: 20%
[6]; 28 DAT, 1 g of a.i./ha
  Herbicidal action against Poa annua L.: 15%
[6]; 28 DAT, 4 g a.i./ha
  Herbicidal action: 80%
[6]; 28 DAT, 16 g a.i./ha
  Herbicidal action: 85%
[6]; 28 DAT, 16 g of a.i./ha
  Herbicidal action against Poa annua L.: 40%
[6]; 28 DAT, 50 g a.i./ha
  Herbicidal action: 0%
[6]; post-emergence, 14 DAT, 1 g of a.i./ha
  Herbicidal action in [%] 14 DAT against Poa annua L.: 50%
[6]; post-emergence, 14 DAT, 4 g of a.i./ha
  Herbicidal action in [%] 14 DAT against Poa annua L.: 85%
[6]; post-emergence, 14 DAT, 16 g of a.i./ha
  Herbicidal action in [%] 14 DAT against Poa annua L.: 93%
[6]; post-emergence, 28 DAT, 1 g of a.i./ha
  Herbicidal action in [%] 28 DAT against Poa annua L.: 20%
[6]; post-emergence, 28 DAT, 4 g of a.i./ha
  Herbicidal action in [%] 28 DAT against Poa annua L.: 80%
[6]; post-emergence, 28 DAT, 16 g of a.i./ha
  Herbicidal action in [%] 28 DAT against Poa annua L.: 85%
[7]
  Herbicidal action 14 DAT against Galium aparine: 40%
  Herbicidal action 28 DAT against Galium aparine: 15%
